US20090221702A1, “COMPOUNDS” (priority 2005, published 2009)
Entries after “also recorded” stand apart in the source; their conditions may differ.

Legend:
Type in all cases: cell-based
NIH3T3 fibroblasts = assay: MTT assay; details: 50 μM
Description: However its inhibitory effects on stimulated cells were not as strong. The methods used were as for Example 2.

PKB [1] = assay: Immunofluorescence microscopy with phospho-specific Ser473 PKB antibody in NIH 3T3 or Cos6 fibroblasts; details: for phosphorylation of PKB on S473 by compound alone: 10 min, starved Cos6 cells, without any serum
Experimental: We therefore tested the compound's effect on PKB S473 phosphorylation by immunofluorescence microscopy with a phospho-specific PKB antibody.
(§1) NIH 3T3 of Cos6 fibroblasts growing on PLL coated coverslips in DMEM containing 10% FCS were starved for 24 hours. Stimulation with c48/80 [10 μg/ml] was always carried out in the presence of 1% FCS for 10 min. Whereas cells growing in DMEM completely depleted of serum were used for experiments with cQ [15 μg/ml]. Where indicated, cells were pretreated with 100 μM LY294002 for 30 min or 500 nM RV001 for 15 min. After treatment cells were washed with PBS, fixed with 4% PFA and permeabilised with 0.25% Triton-X/PBS and washed extensively. After blocking in 1% BSA, cells were phalloidin stained and/or incubated with phospho-specific Ser473 PKB antibody (Cell Signalling) at 4° C. over night and a Fluorescein (FITC)—conjugated goat anti-mouse IgG (Jackson Immuno Research) at room temperature for 1 h. Nuclei were stained with Dapi. Coverslips were mounted on Mowiol containing slides and sealed before analysing on a Nikon Microscope.

PKB [2] = target: T1, PKB (Mus musculus, UniProt P31750); assay: Western blotting of the phospho-Akt content (FIG. 5); details: NIH3T3 cells, method as for FIG. 2
T1 construct: endogenous in cells; host or cells: NIH3T3
T1 sequence (P31750 whole entry): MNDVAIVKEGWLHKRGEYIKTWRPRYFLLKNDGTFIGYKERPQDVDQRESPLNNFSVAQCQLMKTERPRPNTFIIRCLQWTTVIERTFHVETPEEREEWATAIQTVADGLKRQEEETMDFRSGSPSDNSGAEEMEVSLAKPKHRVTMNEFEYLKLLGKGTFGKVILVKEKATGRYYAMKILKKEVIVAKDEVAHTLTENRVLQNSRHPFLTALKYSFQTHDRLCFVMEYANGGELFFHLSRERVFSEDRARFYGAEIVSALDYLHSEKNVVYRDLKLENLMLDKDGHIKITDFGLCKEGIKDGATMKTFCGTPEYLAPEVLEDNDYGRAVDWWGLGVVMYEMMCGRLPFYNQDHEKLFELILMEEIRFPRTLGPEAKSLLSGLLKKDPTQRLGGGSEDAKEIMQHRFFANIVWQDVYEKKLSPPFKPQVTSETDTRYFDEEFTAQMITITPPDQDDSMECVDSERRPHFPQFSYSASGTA
Experimental: (§2) In a typical method, NIH3T3 cells were grown in media (GibcoBRL) containing 10% NCS to near confluency in six well plates. The cells were starved using 0.5% serum for 2-3 days. The media was then removed and replaced with serum free media for 15 minutes. Subsequently, 1% NCS was added to reaction wells, and 0%, 1% and 10% NCS to control wells. After 20 minutes incubation, the compound was added, and the wells incubated for a further 15 minutes. Media was removed and sample buffer was added and the cells lysed, boiled, centrifuged.
(§3) Samples were subjected to gel electrophoresis by 10% SDS-PAGE and then Western blotted on to PVDF membrane (Biorad) according to standard protocols. Western blots were probed using primary antibodies against PKB purchased from New England Biolabs and secondary antibodies of goat anti-rabbit IgG coupled to horseradish peroxidase (Amersham). The membranes were then developed using a freshly prepared ECL solution according to standard protocols.
Western blotting of the phospho-Akt content was also monitored. The methodology used was the same as above.

PKB [3] = target: T1, PKB; assay: Western blot monitoring PKB modulation in NIH3T3 cells (FIG. 2); details: 1% NCS, various concentrations, 15 minutes
Experimental: PKB is a protein downstream effector of PI3K, and becomes phosphorylated on (residues required for its activity) in response to the activation of PI3K. Natal Calf Serum (NCS) is a stimulator of PI3K and thus subsequently results in PKB activation. Therefore the positive control used in experiments is 10% serum and a negative control used is provided with no serum at all.
as §2, §3

Cos6 fibroblasts = assay: Phalloidin staining of F-actin / actin remodelling in starved Cos6 fibroblasts; details: for insulin-stimulated actin remodelling: 15 μg/ml cQ and 5 μg/ml insulin
Experimental: as §1

SMILES | cytotoxicity (MTT assay) (NIH3T3 fibroblasts) | Akt/PKB phosphorylation in starved cells (PKB [1]; 1 μM, starved cells) | inhibitory effects on Akt/PKB phosphorylation in stimulated cells (PKB [1]; 1 μM, stimulated cells, compared with 50 μM) | Akt/PKB phosphorylation in Insulin stimulated cells (PKB [1]; 50 μM, Insulin stimulated cells) | response with PTEN inhibition (increased PI(3,4,5)P3 levels) (PKB [1]; 50 μM, PTEN inhibition) | S473 phosphorylation with PI3-kinase inhibition (PKB [1]; 50 μM, Wortmannin or LY294002) | Akt/PKB phosphorylation on S473 in starved cells (PKB [1]; 50 μM, starved cells) | activation of PKB (phospho-Akt content, western blots, FIG. 5) (PKB [2]) | effect on PKB (phosphorylation of PKB, western blots, FIG. 2) (PKB [3]) | insulin-stimulated actin remodelling (Cos6 fibroblasts; 10 min) | insulin-stimulated actin remodelling (Cos6 fibroblasts; 10 min, listed as cQ) | stress fibers in starved fibroblasts (Cos6 fibroblasts; 15 μg/ml, 10 min, starved Cos6) | cytoskeleton reorganisation, dependence on PI3-kinase (Cos6 fibroblasts; 15 μg/ml, preincubation with 100 μM LY294002 for 30 min, listed as cQ) | F-actin organisation after treatment (Cos6 fibroblasts; 15 μg/ml, starved Cos6) | PKB activation with PTEN inhibitor RV001 (increased PI(3,4,5)P3 levels) (PKB [1]; 15 μg/ml cQ, 500 nM RV001 pretreatment, 0.2 μg/ml insulin, listed as cQ) | compound-induced PKB phosphorylation after PI3-kinase inhibition (PKB [1]; 15 μg/ml cQ, 30 min preincubation with 100 μM LY294002, listed as cQ) | effect of pretreatment on activation of PKB by serum (PKB [1]; 15 μg/ml, 10% FCS, starved cells) | phosphorylation of PKB on S473 by compound alone (PKB [1]; 15 μg/ml) | phosphorylation of PKB on S473 by compound alone (PKB [1]; 15 μg/ml, listed as cQ) | effect of serum on compound-induced PKB activation (PKB [1]; increasing concentrations of serum)
Oc1ccc(CCCl)cc1Cc1cc(CCCl)ccc1O [Compound C, 3,3′-Methylenebis[1-(2-chloroethyl)-4-hydroxybenzene]] | cytotoxic effects | still activatory on its own | not as strong | inhibitory on Akt/PKB phosphorylation | inhibited the response | increase of phosphorylation at this site | activate Akt/PKB phosphorylation on S473 | can activate PKB | – | – | – | – | – | – | – | – | – | – | – | –
COc1c(CO)cc(C)cc1CO [Compound F, 2,6-Bis(hydroxymethyl)-4-anisole] | – | – | – | – | – | – | – | can activate PKB | activators | – | – | – | – | – | – | – | – | – | – | –
Oc1ccc(CCCl)cc1 [Compound Q] | – | – | – | – | – | – | – | can activate PKB | – | inhibits insulin-stimulated actin remodelling | counteract insulin-stimulated actin remodelling; also recorded: interferes with insulin-stimulated stress fiber breakdown | induces the loss of stress fibers in starved fibroblasts | capable of reorganising the cytoskeleton independent of PI3-kinase | produces a disorganised cytoplasmic F-actin and an actin ring juxtaposed to the plasma membrane | indirectly inhibits PKB activation after cQ challenge; also recorded: inhibited PI(3,4,5)P3 mediated PKB activation | strongly increased cQ induced PKB phosphorylation; also recorded: increased cQ induced PKB phosphorylation | completely abolished the activation of PKB by 10% FCS | induces phosphorylation of PKB | sufficient to induce phosphorylation of PKB on S473 residue | increasing concentrations of serum inhibit cQ induced PKB activation
